The source of these data is article PMC2636818, “Atomic structures and functional implications of the archaeal RecQ-like helicase Hjm” (BMC Structural Biology, 2009).

The target of one series is T1, PfuHjm (Pyrococcus furiosus, UniProt O73946).
T1 construct: gene hel308; full-length 720 residues, recombinant from pET21d (pHJM100) in E. coli BL21 codonPlus (DE3)-RIL; C-terminal ~60 (Form 1) or 20 (Form 2) residues disordered; one molecule per asymmetric unit in Form 1
T1 sequence (O73946 1-720): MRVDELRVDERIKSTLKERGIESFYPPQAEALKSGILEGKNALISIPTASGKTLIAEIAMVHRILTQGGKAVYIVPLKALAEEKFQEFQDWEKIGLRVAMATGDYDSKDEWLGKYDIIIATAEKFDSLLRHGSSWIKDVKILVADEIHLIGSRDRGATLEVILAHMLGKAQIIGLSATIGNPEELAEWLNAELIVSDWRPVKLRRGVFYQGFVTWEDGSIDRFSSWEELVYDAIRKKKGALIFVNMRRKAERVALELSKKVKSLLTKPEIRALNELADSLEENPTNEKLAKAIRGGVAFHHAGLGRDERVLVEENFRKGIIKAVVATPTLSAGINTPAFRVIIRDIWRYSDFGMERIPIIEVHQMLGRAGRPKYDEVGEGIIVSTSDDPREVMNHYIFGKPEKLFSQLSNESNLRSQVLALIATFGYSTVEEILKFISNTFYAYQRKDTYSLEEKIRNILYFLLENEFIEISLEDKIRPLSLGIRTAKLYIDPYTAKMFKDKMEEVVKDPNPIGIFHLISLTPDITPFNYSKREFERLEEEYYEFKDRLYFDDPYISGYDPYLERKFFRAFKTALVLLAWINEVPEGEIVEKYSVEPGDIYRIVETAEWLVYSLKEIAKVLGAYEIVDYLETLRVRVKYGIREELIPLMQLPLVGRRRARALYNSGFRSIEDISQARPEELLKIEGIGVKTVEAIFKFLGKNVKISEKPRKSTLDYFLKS
The series can be described thus: X-ray crystal structure, soaked crystal. Format: binding. The conditions noted are these: Form 1 crystal soaked with 1 mM ATPgammaS, ADP modelled as hydrolysed product; 100 mM citrate pH 5.0, 1.6 M ammonium sulfate; 2.4 A; nucleotide site.

Series [1] has as its target T2, PfuHjm (RecQ-like helicase Hjm, Hel308 family) (Pyrococcus furiosus, UniProt O73946 1-720).
T2 sequence: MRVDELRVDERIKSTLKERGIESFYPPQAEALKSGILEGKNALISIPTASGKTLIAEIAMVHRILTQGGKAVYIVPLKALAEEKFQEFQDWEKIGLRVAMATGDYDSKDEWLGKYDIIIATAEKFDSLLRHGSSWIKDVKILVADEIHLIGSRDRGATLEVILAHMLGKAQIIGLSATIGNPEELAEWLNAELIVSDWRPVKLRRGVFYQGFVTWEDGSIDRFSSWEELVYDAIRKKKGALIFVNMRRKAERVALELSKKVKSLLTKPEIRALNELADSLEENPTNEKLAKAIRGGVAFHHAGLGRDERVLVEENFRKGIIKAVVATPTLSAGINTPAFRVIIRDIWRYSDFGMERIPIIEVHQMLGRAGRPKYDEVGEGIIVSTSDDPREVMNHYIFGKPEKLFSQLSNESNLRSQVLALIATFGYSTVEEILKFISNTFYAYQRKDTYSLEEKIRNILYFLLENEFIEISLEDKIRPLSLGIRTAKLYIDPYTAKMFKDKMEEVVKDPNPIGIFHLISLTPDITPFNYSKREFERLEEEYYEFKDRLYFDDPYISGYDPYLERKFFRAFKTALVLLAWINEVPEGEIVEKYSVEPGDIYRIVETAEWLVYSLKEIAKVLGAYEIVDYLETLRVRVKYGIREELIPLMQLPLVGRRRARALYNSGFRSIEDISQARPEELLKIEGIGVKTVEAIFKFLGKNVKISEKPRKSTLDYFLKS
The series can be described thus: negative-stain single-particle EM (23 A) of complex purified by gel filtration; no nucleotide added; 50 mM Tris-HCl pH 8.0, 0.15 M NaCl, 0.5 mM EDTA, 1 mM DTT, 10% glycerol, room temperature, 20 min, 1:1 protein/DNA. To be noted: protein: recombinant; hairpin with 3' overhang. (In gel filtration, larger molecules generally elute earlier.)

On to `Nc1ncnc2c1ncn2[C@@H]1O[C@H](COP(=O)(O)OP(=O)(O)O)[C@@H](O)[C@H]1O` [ADP], for which the “X-ray crystal structure, soaked crystal” value on PfuHjm is on record as “electron density corresponding to the hydrolyzed product ADP, rather than the soaked ATPγS”.

B1: 3' overhang hairpin DNA (structured_DNA)
DNA: AGCACTGCTATTCCCTAGCAGTGCTAGATGCACGAC
B1: the binding result in series [1] is “binds”.
